Reference: publication PMC8705818, “Experimental Characterization of the Interaction between the N-Terminal SH3 Domain of Crkl and C3G” (International Journal of Molecular Sciences, 2021)
Peptide text beside a SMILES is read from it. * marks the point of attachment. Dansyl = CN(C)c1cccc2c(S(=O)(=O)*)cccc12

Biological target: T1, N-SH3 domain of Crkl (WT) (Homo sapiens, UniProt P46109)
T1 construct: The construct encoding the N-SH3 domain of Crkl was subcloned in a pET28b+ plasmid vector; His-tag; made in house; host or cells: E. coli BL21
Experiment: Stopped-flow kinetic binding, N-SH3 WT versus C3G277–296
Settings: 10 °C
Description: In order to characterize the binding reaction between the N-SH3 domain of Crkl and C3G, we conducted kinetic binding experiments with a stopped-flow apparatus, by rapidly mixing the N-SH3 domain versus the C3G277–296 peptide, the latter covalently linked with a dansyl group at its N-terminus (Dansyl-[…]). This modification allowed us to monitor the binding reaction by following the change of Förster resonance energy transfer (FRET) signal upon binding, which generates from the two naturally present tryptophan residues in the N-SH3 domain in position 164 and 165 (donor) and the dansyl group linked to the peptide (acceptor).
To characterize the binding between N-SH3 and the C3G277–296 peptide, we resorted to carry out pre-steady state rapid mixing stopped-flow experiments. In these types of experiments, a common practice lies in performing the kinetic analysis under the so-called pseudo-first-order conditions, i.e., a condition in which one of the two reactants is held at a much higher concentration than the other. In practice, in many cases, it is extremely difficult to achieve such conditions. This is particularly true in cases in which the observed rate constants are so high to approach the experimental limitations of the stopped-flow apparatus. Accordingly, as described below, the analysis of the binding data must be performed by applying the analytical solution of the bimolecular binding transition.
We rapidly mixed a constant concentration of C3G277–296 peptide (0.5 µM) versus increasing concentrations of N-SH3 (ranging from 0.5 to 5 µM) and the observed rate constants (kobs) obtained at different ionic strength conditions (buffer Hepes 50 mM, pH 7.0, 0.15 M, 0.3 M, 0.5 M and 1 M NaCl) were plotted as function of concentration of N-SH3 and fitted with a linear equation (Figure 1). By following previously derived equations [19, 20], the dependence of kobs as function of [N-SH3] was fitted with Equation (1), taking into account the non-pseudo-first order conditions, allowing us to calculate the microscopic association rate constant (kon), the microscopic dissociation rate constant (koff) of the binding reaction and the equilibrium dissociation rate constant KD, such as koff/kon. To increase the reliability of the calculated KD, we resorted to directly obtaining a koff value through displacement experiments (Table 1), in which a preincubated complex of N-SH3 domain and dansylated C3G277–296 peptide (at the concentration of 0.5 and 2 µM, respectively) were rapidly mixed versus a high excess of nondansylated peptide (ranging from 20 to 40 µM). In agreement with the theory in [21], the observed rate constants were insensitive to displacer concentration. In all binding and displacement experiments conducted, traces were satisfactorily fitted with a single-exponential equation. (1) kobs=(kon^2∗(2−[NSH3])^2+koff^2+2konkoff(2+[NSH3]))^1/2
To further investigate the role of charges in the binding reaction between N-SH3 domain and C3G, we resorted to performing kinetic binding experiment at different pH conditions, at a range of pH between 5.0 and 9.0. The observed rate constants obtained at different pH conditions were fitted with Equation (1) (Figure 2, left), and the calculated kinetic parameters kon and koff (obtained from separated displacement experiments) are reported in Table 1.
Kinetic binding experiments were performed on a single-mixing SX-18 stopped-flow instrument (Applied Photophysics), by mixing a constant concentration (0.5 μM) of C3G dansylated versus increasing concentrations of N-SH3 at 10 °C. Ionic strength dependence of wt N-SH3 was performed with concentrations ranging from 1 to 5 µM for 0 M NaCl condition and from 0.5 to 5 µM for 0.15 M, 0.3 M, 0.5 M and 1 M NaCl, buffer Hepes 50 mM pH 7.0. The excitation wavelength was 280 nm, and fluorescence was collected using a 455 nm cut-off filter. At least, five independent acquisitions were collected and averaged for each experiment. […]

T1 sequence (P46109 123-183 limits assumed): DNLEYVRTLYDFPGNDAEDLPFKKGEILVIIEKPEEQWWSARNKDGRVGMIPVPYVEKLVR

- kon (pH 5, pH 5.0 (50 mM Sodium Acetate), 0.5 M NaCl, 0.5 µM dansylated peptide vs 4.0–8.0 µM N-SH3): 4.4e+07 ± 1.5e+07 M⁻¹ s⁻¹
- kon (pH 5.5, pH 5.5 (50 mM Sodium Acetate), 0.5 M NaCl, 0.5 µM dansylated peptide vs 2.0–7.0 µM N-SH3): 3.7e+07 ± 3e+06 M⁻¹ s⁻¹
- kon (pH 6.5, pH 6.5 (Bis–Tris 50 mM), 0.5 M NaCl, 0.5 µM dansylated peptide vs 0.5–5.0 µM N-SH3): 6.5e+07 ± 4e+06 M⁻¹ s⁻¹
- kon (pH 7, 0 M NaCl, Hepes 50 mM pH 7.0, 0.5 µM dansylated peptide vs 1–5 µM N-SH3, FRET, ex 280 nm, 455 nm cut-off, at least five acquisitions averaged): 1.3e+08 ± 7e+06 M⁻¹ s⁻¹
- kon (pH 7, 0.15 M NaCl, Hepes 50 mM pH 7.0, 0.5 µM dansylated peptide vs 0.5–5 µM N-SH3, FRET): 9.6e+07 ± 8e+06 M⁻¹ s⁻¹
- kon (pH 7, 0.3 M NaCl, Hepes 50 mM pH 7.0, 0.5 µM dansylated peptide vs 0.5–5 µM N-SH3, FRET): 8.3e+07 ± 7e+06 M⁻¹ s⁻¹
- kon (pH 7, 0.5 M NaCl (ionic strength series), Hepes 50 mM pH 7.0, 0.5 µM dansylated peptide vs 0.5–5 µM N-SH3, FRET): 5.1e+07 ± 4e+06 M⁻¹ s⁻¹
- kon (pH 7, 1.0 M NaCl, Hepes 50 mM pH 7.0, 0.5 µM dansylated peptide vs 0.5–5 µM N-SH3, FRET): 6.8e+07 ± 5e+06 M⁻¹ s⁻¹
- kon (pH 7, pH 7.0 (Hepes 50 mM), 0.5 M NaCl (pH series), 0.5 µM dansylated peptide vs 1.5–6.0 µM N-SH3): 5.2e+07 ± 5e+06 M⁻¹ s⁻¹
- kon (pH 7.5, pH 7.5 (Hepes 50 mM), 0.5 M NaCl, 0.5 µM dansylated peptide vs 0.5–5.0 µM N-SH3): 5.1e+07 ± 5e+06 M⁻¹ s⁻¹
- kon (pH 8, pH 8.0 (Tris–HCl 50 mM), 0.5 M NaCl, 0.5 µM dansylated peptide vs 1.5–6.0 µM N-SH3): 5.6e+07 ± 5e+06 M⁻¹ s⁻¹
- kon (pH 8.5, pH 8.5 (Tris–HCl 50 mM), 0.5 M NaCl, 0.5 µM dansylated peptide vs 1.5–6.0 µM N-SH3): 6.8e+07 ± 7e+06 M⁻¹ s⁻¹
- kon (pH 9, pH 9.0 (Tris–HCl 50 mM), 0.5 M NaCl, 0.5 µM dansylated peptide vs 1.5–6.0 µM N-SH3): 3.9e+07 ± 4e+06 M⁻¹ s⁻¹
SMILES: CC(C)C[C@H](NC(=O)[C@H](C)NC(=O)[C@@H]1CCCN1C(=O)[C@@H]1CCCN1C(=O)[C@@H]1CCCN1C(=O)[C@H](CO)NC(=O)[C@H](CC(N)=O)NC(=O)[C@H](CC(=O)O)NC(=O)[C@@H](NC(=O)[C@@H](NS(=O)(=O)c1cccc2c(N(C)C)cccc12)C(C)C)C(C)C)C(=O)N1CCC[C@H]1C(=O)N1CCC[C@H]1C(=O)N[C@@H](CCCCN)C(=O)N[C@@H](CCCCN)C(=O)N[C@@H](CCCNC(=N)N)C(=O)N[C@@H](CCC(N)=O)C(=O)N[C@@H](CO)C(=O)N[C@@H](C)C(=O)N1CCC[C@H]1C(=O)N[C@@H](CO)C(=O)O [C3G277–296] (Dansyl-VVDNSPPPALPPKKRQSAPS-OH)
